Reference: PubChem BioAssay (NCI)
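The compound was tested at five concentrations on cells cultured in 96-well plates, with a 48-hour exposure period. At the GI50, growth is halved. The concentration for full growth arrest is given as TGI.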

Tests used:
Assay in all cases: growth of human tumour cells (NCI), 48 h
NCI/ADR-RES ovarian = test system: NCI/ADR-RES ovarian
PC-3 prostate = test system: PC-3 prostate
CCRF-CEM leukemia = test system: CCRF-CEM leukemia
OVCAR-3 ovarian = test system: OVCAR-3 ovarian
RPMI-8226 leukemia = test system: RPMI-8226 leukemia
HOP-62 NSCLC = test system: HOP-62 NSCLC
SF-539 CNS = test system: SF-539 CNS
K-562 leukemia = test system: K-562 leukemia
OVCAR-8 ovarian = test system: OVCAR-8 ovarian
NCI-H226 lung = test system: NCI-H226 lung
CAKI-1 renal = test system: CAKI-1 renal
ACHN renal = test system: ACHN renal
OVCAR-4 ovarian = test system: OVCAR-4 ovarian
LOX IMVI melanoma = test system: LOX IMVI melanoma
DU-145 prostate = test system: DU-145 prostate
BT-549 breast = test system: BT-549 breast
MDA-MB-435 = test system: MDA-MB-435
T-47D breast = test system: T-47D breast
OVCAR-5 ovarian = test system: OVCAR-5 ovarian
SN12C renal = test system: SN12C renal
HS 578T breast = test system: HS 578T breast
SK-MEL-2 melanoma = test system: SK-MEL-2 melanoma
HCT-116 colon = test system: HCT-116 colon
MDA-MB-231 breast = test system: MDA-MB-231 breast
UACC-257 melanoma = test system: UACC-257 melanoma
TK-10 renal = test system: TK-10 renal
U251 CNS = test system: U251 CNS
SR leukemia = test system: SR leukemia
HCT-15 colon = test system: HCT-15 colon
COLO 205 colon = test system: COLO 205 colon
SF-268 CNS = test system: SF-268 CNS
A549 NSCLC = test system: A549 NSCLC
RXF 393 renal = test system: RXF 393 renal
IGROV1 ovarian = test system: IGROV1 ovarian
UACC-62 melanoma = test system: UACC-62 melanoma
786-0 renal = test system: 786-0 renal
MOLT-4 leukemia = test system: MOLT-4 leukemia
NCI-H460 lung = test system: NCI-H460 lung
UO-31 renal = test system: UO-31 renal
SK-MEL-5 melanoma = test system: SK-MEL-5 melanoma
SK-MEL-28 melanoma = test system: SK-MEL-28 melanoma
SNB-19 CNS = test system: SNB-19 CNS
EKVX NSCLC = test system: EKVX NSCLC
MDA-MB-468 breast = test system: MDA-MB-468 breast
HT29 colon = test system: HT29 colon
HCC-2998 colon = test system: HCC-2998 colon
MCF7 breast = test system: MCF7 breast
A498 renal = test system: A498 renal
HL-60(TB) leukemia = test system: HL-60(TB) leukemia
NCI-H522 lung = test system: NCI-H522 lung
MALME-3M melanoma = test system: MALME-3M melanoma
SK-OV-3 ovarian = test system: SK-OV-3 ovarian
SW-620 colon = test system: SW-620 colon
KM12 colon = test system: KM12 colon
NCI-H23 lung = test system: NCI-H23 lung
HOP-92 NSCLC = test system: HOP-92 NSCLC
SNB-75 CNS = test system: SNB-75 CNS
M14 melanoma = test system: M14 melanoma
SF-295 CNS = test system: SF-295 CNS

COc1ccc(CCN2C(=O)/C(=C/c3csc(C#N)n3)SC2=S)cc1
GI50 (NCI/ADR-RES ovarian): 15.9 µM | TGI (NCI/ADR-RES ovarian): 32.3 µM | GI50 (PC-3 prostate): 12 µM | TGI (PC-3 prostate): 26.7 µM | GI50 (CCRF-CEM leukemia): 3.13 µM | TGI (CCRF-CEM leukemia): 9.66 µM | GI50 (OVCAR-3 ovarian): 10.1 µM | TGI (OVCAR-3 ovarian): 21.7 µM | GI50 (RPMI-8226 leukemia): 4.29 µM | TGI (RPMI-8226 leukemia): 30.6 µM | GI50 (HOP-62 NSCLC): 17.5 µM | TGI (HOP-62 NSCLC): 32 µM | GI50 (SF-539 CNS): 10.5 µM | TGI (SF-539 CNS): 22.3 µM | GI50 (K-562 leukemia): 3.52 µM | TGI (K-562 leukemia): > 100 µM | GI50 (OVCAR-8 ovarian): 15.2 µM | TGI (OVCAR-8 ovarian): 29.7 µM | GI50 (NCI-H226 lung): 14.5 µM | TGI (NCI-H226 lung): 28.8 µM | GI50 (CAKI-1 renal): 16.9 µM | TGI (CAKI-1 renal): 31.4 µM | GI50 (ACHN renal): 14.1 µM | TGI (ACHN renal): 27.1 µM | GI50 (OVCAR-4 ovarian): 15.5 µM | TGI (OVCAR-4 ovarian): 47 µM | GI50 (LOX IMVI melanoma): 3.04 µM | TGI (LOX IMVI melanoma): 10.5 µM | GI50 (DU-145 prostate): 4.6 µM | TGI (DU-145 prostate): 15.6 µM | GI50 (BT-549 breast): 8.93 µM | TGI (BT-549 breast): 21.7 µM | GI50 (MDA-MB-435): 12.5 µM | TGI (MDA-MB-435): 28.3 µM | GI50 (T-47D breast): 5.7 µM | TGI (T-47D breast): 30.2 µM | GI50 (OVCAR-5 ovarian): 15.6 µM | TGI (OVCAR-5 ovarian): 29 µM | GI50 (SN12C renal): 12.3 µM | TGI (SN12C renal): 24.8 µM | GI50 (HS 578T breast): 21.8 µM | TGI (HS 578T breast): 64.9 µM | GI50 (SK-MEL-2 melanoma): 12.2 µM | TGI (SK-MEL-2 melanoma): 24.9 µM | GI50 (HCT-116 colon): 7.69 µM | TGI (HCT-116 colon): 20.7 µM | GI50 (MDA-MB-231 breast): 11.6 µM | TGI (MDA-MB-231 breast): 24.1 µM | GI50 (UACC-257 melanoma): 11.7 µM | TGI (UACC-257 melanoma): 27.1 µM | GI50 (TK-10 renal): 10.7 µM | TGI (TK-10 renal): 27.7 µM | GI50 (U251 CNS): 13.1 µM | TGI (U251 CNS): 26.4 µM | GI50 (SR leukemia): 3.59 µM | TGI (SR leukemia): 32.4 µM | GI50 (HCT-15 colon): 6.19 µM | TGI (HCT-15 colon): 19.7 µM | GI50 (COLO 205 colon): 16 µM | TGI (COLO 205 colon): 29.5 µM | GI50 (SF-268 CNS): 15 µM | TGI (SF-268 CNS): 32.7 µM | GI50 (A549 NSCLC): 21.3 µM | TGI (A549 NSCLC): 56.1 µM | GI50 (RXF 393 renal): 10.4 µM | TGI (RXF 393 renal): 22.1 µM | GI50 (IGROV1 ovarian): 17.9 µM | TGI (IGROV1 ovarian): 34.6 µM | GI50 (UACC-62 melanoma): 10.9 µM | TGI (UACC-62 melanoma): 22.9 µM | GI50 (786-0 renal): 10.2 µM | TGI (786-0 renal): 22.2 µM | GI50 (MOLT-4 leukemia): 3.52 µM | TGI (MOLT-4 leukemia): 53.1 µM | GI50 (NCI-H460 lung): 18.4 µM | TGI (NCI-H460 lung): 39 µM | GI50 (UO-31 renal): 10.8 µM | TGI (UO-31 renal): 22.6 µM | GI50 (SK-MEL-5 melanoma): 15.1 µM | TGI (SK-MEL-5 melanoma): 28.3 µM | GI50 (SK-MEL-28 melanoma): 12.1 µM | TGI (SK-MEL-28 melanoma): 24.5 µM | GI50 (SNB-19 CNS): 14.9 µM | TGI (SNB-19 CNS): 28.1 µM | GI50 (EKVX NSCLC): 18.5 µM | TGI (EKVX NSCLC): 34.4 µM | GI50 (MDA-MB-468 breast): 3.03 µM | TGI (MDA-MB-468 breast): 13.2 µM | GI50 (HT29 colon): 14.1 µM | TGI (HT29 colon): 27.1 µM | GI50 (HCC-2998 colon): 15.9 µM | TGI (HCC-2998 colon): 29.4 µM | GI50 (MCF7 breast): 4.31 µM | TGI (MCF7 breast): 15.9 µM | GI50 (A498 renal): 16.7 µM | TGI (A498 renal): 30.3 µM | GI50 (HL-60(TB) leukemia): 14.5 µM | TGI (HL-60(TB) leukemia): 46.8 µM | GI50 (NCI-H522 lung): 3.03 µM | TGI (NCI-H522 lung): 14 µM | GI50 (MALME-3M melanoma): 14.3 µM | TGI (MALME-3M melanoma): 28.9 µM | GI50 (SK-OV-3 ovarian): 18.8 µM | TGI (SK-OV-3 ovarian): 37.4 µM | GI50 (SW-620 colon): 8.45 µM | TGI (SW-620 colon): 21.7 µM | GI50 (KM12 colon): 3.82 µM | TGI (KM12 colon): 14.1 µM | GI50 (NCI-H23 lung): 14.6 µM | TGI (NCI-H23 lung): 27.7 µM | GI50 (HOP-92 NSCLC): 2.13 µM | TGI (HOP-92 NSCLC): 15.1 µM | GI50 (SNB-75 CNS): 16.1 µM | TGI (SNB-75 CNS): 31 µM | GI50 (M14 melanoma): 11.5 µM | TGI (M14 melanoma): 25.1 µM | GI50 (SF-295 CNS): 17.3 µM | TGI (SF-295 CNS): 33.9 µM
